Source: patent US12152012B2, “BRAG2 inhibitors and applications thereof” (CENTRE NATIONAL DE LA RECHERCHE SCIENTIFIQUE, priority 2018, dated 2024)

How the values were obtained:
[1] = molecular target: T1, BRAG2 (activation of myristoylated Arf6) (Homo sapiens, UniProt Q6DN90); experiment: Nucleotide exchange kinetics on liposomes, activation of myristoylated Arf6; assay type: biochemical; details: 50 μM
T1 construct: human BRAG2^Sec7 (390-594) and BRAG2^Sec7PH (390-811); made in house
Method: (§1) FIG. 2. Bragsin is a specific inhibitor of the ArfGEF BRAG2 • a. Bragsin1 has no effect on the Sec7 domain of human ArfGEFs in solution. Nucleotide exchange kinetics were measured by fluorescence kinetics in the presence of Bragsin1 (50 μM) or DMSO using purified Sec7 domains and a truncated version of Arf1 (D17Arf1), which can be activated in solution. […] Nucleotide exchange kinetics were determined in the presence of Bragsin1 (50 μM) or DMSO with ArfGEF constructs carrying membrane-binding domains and myristoylated Arf1. […] was artificially tethered to liposomes by a C-terminal hexahistidine tag as described in (Peurois, F. et al. Biochem J 474, 1259-1272 (2017). Representative kinetic profiles are given in FIG. 15. • c. Bragsin1 inhibits the activation of myristoylated Arf6 by BRAG2 on liposomes. Experiments were carried out as in FIG. 2b. Representative kinetic profiles are given in FIG. 16. • d. Dose-response of Bragsin1 and Bragsin2 towards myristoylated Arf1 and BRAG2 on liposomes. Experiments were carried out as in FIG. 2b. • e. Silencing of BRAG2 phenocopies the effect of Bragsin2 on the TGN46 compartment. […]
(§2) The effect of Bragsin1 on the GEF efficiency of representative human ArfGEFs was evaluated by fluorescence kinetics using highly purified recombinant Arf GTPases and ArfGEFs. […]

[2] = molecular target: T2, Rac1/Trio (Homo sapiens, UniProt O75962); experiment: Nucleotide exchange kinetics on liposomes, Rac1 tethered by hexahistidine tag; assay type: biochemical; details: 50 μM; Rac1 tethered to liposomes
T2 construct: human TRIO^DH1PH1 (1232-1550); made in house
Method: as §1, §2

T1 sequence (Q6DN90 512-933): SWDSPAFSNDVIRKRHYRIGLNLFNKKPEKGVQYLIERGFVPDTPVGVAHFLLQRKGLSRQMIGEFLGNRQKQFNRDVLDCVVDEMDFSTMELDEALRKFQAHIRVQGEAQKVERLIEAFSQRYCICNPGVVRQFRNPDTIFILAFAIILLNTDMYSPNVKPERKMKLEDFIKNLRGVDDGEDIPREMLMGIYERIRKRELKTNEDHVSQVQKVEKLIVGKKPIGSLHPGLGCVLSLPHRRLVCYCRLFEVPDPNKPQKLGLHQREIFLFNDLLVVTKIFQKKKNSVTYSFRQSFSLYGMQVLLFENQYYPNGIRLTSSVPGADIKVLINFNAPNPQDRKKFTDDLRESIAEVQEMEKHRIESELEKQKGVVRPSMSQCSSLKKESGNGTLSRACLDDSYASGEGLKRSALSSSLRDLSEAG

Compound: Cc1ccc2oc(C(F)(F)F)cc(=O)c2c1[N+](=O)[O-] [Bragsin1, 6-methyl-5-nitro-2-(trifluoromethyl)-4H-chromen-4-one]
- Inhibition of BRAG2-mediated activation of myristoylated Arf6 [1]: inhibits
- Effect on Rac1/Trio exchange activity on liposomes [2]: no effect
